In brackets after ≈: the same amount, converted by molar mass.
Columns and labels:
[1] = test system: Plasmodium falciparum; assay: Resistance index, ratio of EC50 for chloroquine, mefloquine, pyrimethamine and atovaquone-resistant Plasmodium falciparum TM90-C2B to EC50 for chloroquine and pyrimethamine-resistant Plasmodium falciparum W2; type: functional
[2] = Aqueous solubility of compound at pH 7.4 by HPLC analysis; settings: buffer
[3] = Cytotoxicity index, ratio of EC50 for mouse J774 cells to EC50 for chloroquine, mefloquine, pyrimethamine and atovaquone-resistant Plasmodium falciparum TM90-C2B; type: cell-based; settings: read-out: Ratio EC50
[4] = test system: Plasmodium falciparum; assay: Antimalarial activity against chloroquine and pyrimethamine-resistant Plasmodium falciparum W2 infected in human A positive erythrocytes after 72 hrs by SYBR Green I assay; type: functional, organism-based; settings: W2, 72 h
[5] = Permeability of the compound by PAMPA method at pH 7.4; type: ADME; settings: read-out: permeability
[6] = Partition coefficient, log D of the compound at pH 7.4 by HPLC analysis; settings: octanol/water
[7] = test system: Plasmodium falciparum; assay: Antimalarial activity against chloroquine, mefloquine, pyrimethamine and atovaquone-resistant Plasmodium falciparum TM90-C2B infected in human A positive erythrocytes after 72 hrs by SYBR Green I assay; type: functional, organism-based
[8] = test system: J774; assay: Cytotoxicity against mouse J774 cells after 72 hrs by Cell titer 96 aqueous one solution cell proliferation assay; type: cell-based; settings: J774, 72 h

SMILES	Ratio EC50 [1]	solubility [2]	selectivity ratio [3]	EC50 [4]	Papp [5]	logD [6]	EC50 [7]	EC50 [8]
O=C1CC(c2ccc(Cl)cc2Cl)Cc2nc3ccc(Cl)cc3c(O)c21 (centres undefined)	3.19	1 µM (≈ 0.393 µg/mL)	≥ 100	8.71 nM	20 ×10⁻⁶ cm/s	3.1	27.8 nM	–
Cc1cc2[nH]c3c(c(=O)c2cc1C)CCCC3	–	41 µM (≈ 9.32 µg/mL)	–	262 nM	46 ×10⁻⁶ cm/s	–	216 nM	> 20000 nM
O=c1c2c([nH]c3ccc(Cl)cc13)CCCC2	0.63	4 µM (≈ 0.935 µg/mL)	≥ 100	99.4 nM	57 ×10⁻⁶ cm/s	2	63.4 nM	> 2000 nM
O=c1c2c([nH]c3cccc(Cl)c13)CCCC2	1.22	99 µM (≈ 23.1 µg/mL)	≥ 100	368 nM	47 ×10⁻⁶ cm/s	1.8	447 nM	> 5000 nM
CC1(C)CCc2[nH]c3ccccc3c(=O)c2C1	0.7	35 µM (≈ 7.96 µg/mL)	≥ 100	421 nM	43 ×10⁻⁶ cm/s	1.8	295 nM	> 20000 nM
COc1cccc2c(=O)c3c([nH]c12)CCC(C)(C)C3	0.31	91 µM (≈ 23.4 µg/mL)	≥ 100	1990 nM	95 ×10⁻⁶ cm/s	2.4	620 nM	> 40000 nM
COc1ccc2[nH]c3c(c(=O)c2c1)CC(C)(C)CC3	>1.16	38 µM (≈ 9.78 µg/mL)	≥ 100	8400 nM	73 ×10⁻⁶ cm/s	2	> 9720 nM	> 20000 nM
COc1cccc2[nH]c3c(c(=O)c12)CC(C)(C)CC3	0.67	83 µM (≈ 21.4 µg/mL)	≥ 100	5240 nM	54 ×10⁻⁶ cm/s	1.9	3500 nM	> 20000 nM
Cc1cccc2c(=O)c3c([nH]c12)CCC(C)(C)C3	0.67	38 µM (≈ 9.17 µg/mL)	≥ 100	791 nM	90 ×10⁻⁶ cm/s	2.3	531 nM	> 40000 nM
COc1ccc2[nH]c3c(c(=O)c2c1)CCC(C)(C)C3	–	9.2 µM (≈ 2.37 µg/mL)	≥ 100	> 9720 nM	128 ×10⁻⁶ cm/s	2.3	> 9720 nM	> 5000 nM
Cc1cccc2[nH]c3c(c(=O)c12)CCC(C)(C)C3	–	9 µM (≈ 2.17 µg/mL)	≥ 100	> 9990 nM	240 ×10⁻⁶ cm/s	2.8	> 9990 nM	> 5000 nM
CC1(C)CCc2c([nH]c3cc(Cl)ccc3c2=O)C1	0.6	1 µM (≈ 0.262 µg/mL)	≥ 100	1080 nM	–	2.9	645 nM	> 1000 nM
CC(C)(C)c1cccc2c(=O)c3c([nH]c12)CCCC3	–	90 µM (≈ 23 µg/mL)	≥ 100	> 9790 nM	553 ×10⁻⁶ cm/s	3.3	> 9790 nM	> 10000 nM
O=c1c2c([nH]c3c(C(F)(F)F)cccc13)CCCC2	–	116 µM (≈ 31 µg/mL)	≥ 100	> 9350 nM	246 ×10⁻⁶ cm/s	2.6	> 9350 nM	> 20000 nM
Cc1cc(C)c2c(=O)c3c([nH]c2c1)CCCC3	1.54	17 µM (≈ 3.86 µg/mL)	≥ 100	3130 nM	218 ×10⁻⁶ cm/s	2.4	4830 nM	–
COc1ccc(OC)c2c(=O)c3c([nH]c12)CCCC3	–	105 µM (≈ 27.2 µg/mL)	≥ 100	> 9640 nM	9 ×10⁻⁶ cm/s	1.5	> 9640 nM	> 20000 nM
COc1ccc2c(=O)c3c([nH]c2c1)CCC3	0.54	91 µM (≈ 19.6 µg/mL)	≥ 100	1130 nM	11 ×10⁻⁶ cm/s	1.5	610 nM	> 40000 nM
COc1ccc2c(=O)c3c([nH]c2c1)CCCCC3	0.89	30 µM (≈ 7.3 µg/mL)	≥ 100	171 nM	39 ×10⁻⁶ cm/s	2.1	153 nM	> 20000 nM
COc1ccc2c(=O)c3c([nH]c2c1)CCCCCC3	1.58	98 µM (≈ 25.2 µg/mL)	≥ 100	146 nM	73 ×10⁻⁶ cm/s	2.4	230 nM	> 40000 nM
O=c1c2c([nH]c3cc(C(F)(F)F)ccc13)CCC2	0.19	98 µM (≈ 24.8 µg/mL)	≥ 100	2320 nM	60 ×10⁻⁶ cm/s	2.3	438 nM	> 40000 nM

SMILES	Ratio EC50 [1]	solubility [2]	selectivity ratio [3]	EC50 [4]	Papp [5]	logD [6]	EC50 [7]	EC50 [8]
O=c1c2c([nH]c3cc(C(F)(F)F)ccc13)CCCC2	0.16	158 µM (≈ 42.2 µg/mL)	≥ 100	120 nM	73 ×10⁻⁶ cm/s	2.7	19 nM	> 20000 nM
O=c1c2c([nH]c3cc(C(F)(F)F)ccc13)CCCCC2	>0.88	17 µM (≈ 4.78 µg/mL)	≥ 100	4890 nM	131 ×10⁻⁶ cm/s	3	> 4340 nM	> 10000 nM
O=c1c2c([nH]c3cc(C(F)(F)F)ccc13)CCCCCC2	0.89	13 µM (≈ 3.84 µg/mL)	≥ 100	4740 nM	252 ×10⁻⁶ cm/s	3.2	4230 nM	> 10000 nM
COc1cccc2c(=O)c3c([nH]c12)CCCC3	0.95	99 µM (≈ 22.7 µg/mL)	≥ 100	4770 nM	16 ×10⁻⁶ cm/s	1.7	4560 nM	> 20000 nM
COc1ccc2[nH]c3c(c(=O)c2c1)CCCC3	1.03	78 µM (≈ 17.9 µg/mL)	≥ 100	2440 nM	16 ×10⁻⁶ cm/s	1.5	2530 nM	> 40000 nM
COc1cccc2[nH]c3c(c(=O)c12)CCCC3	0.66	76 µM (≈ 17.4 µg/mL)	≥ 100	8970 nM	17 ×10⁻⁶ cm/s	1.2	5940 nM	> 20000 nM
Cc1ccc2[nH]c3c(c(=O)c2c1)CCCC3	1.46	44 µM (≈ 9.38 µg/mL)	≥ 100	449 nM	19 ×10⁻⁶ cm/s	1.7	656 nM	> 40000 nM
Cc1cccc2[nH]c3c(c(=O)c12)CCCC3	0.73	99 µM (≈ 21.1 µg/mL)	≥ 100	6250 nM	87 ×10⁻⁶ cm/s	2.1	4570 nM	> 20000 nM
O=c1c2c([nH]c3c(Cl)cccc13)CCCC2	>7.9	107 µM (≈ 25 µg/mL)	≥ 100	1350 nM	107 ×10⁻⁶ cm/s	2.2	> 9000 nM	> 20000 nM
O=c1c2c([nH]c3c(Cl)ccc(Cl)c13)CCCC2	–	108 µM (≈ 29 µg/mL)	≥ 100	> 9320 nM	288 ×10⁻⁶ cm/s	2.6	> 9320 nM	> 20000 nM
O=c1c2c([nH]c3c(Cl)cc(Cl)cc13)CCCC2	–	1 µM (≈ 0.268 µg/mL)	≥ 100	> 9320 nM	252 ×10⁻⁶ cm/s	3	> 9320 nM	> 1000 nM
CC(C)Oc1cc2[nH]c3c(c(=O)c2cc1Cl)CCCC3	4.88	0.3 µM (≈ 0.0875 µg/mL)	≥ 100	21.3 nM	–	2.9	104 nM	> 100 nM
O=c1c2c([nH]c3cc(Br)ccc13)CCSC2	–	17 µM (≈ 5.04 µg/mL)	≥ 100	667 nM	6.3 ×10⁻⁶ cm/s	0.9	> 8440 nM	> 10000 nM
CN1CCc2[nH]c3ccccc3c(=O)c2C1	–	33 µM (≈ 7.07 µg/mL)	≥ 100	> 9990 nM	21 ×10⁻⁶ cm/s	1	> 9990 nM	> 20000 nM
O=c1c2c([nH]c3ccc(Oc4ccc(F)cc4)cc13)CCCC2	0.28	8 µM (≈ 2.47 µg/mL)	≥ 100	169 nM	–	2.8	47 nM	> 5000 nM
O=c1c2c([nH]c3cc(Cl)ccc13)CCCC2	0.89	15 µM (≈ 3.51 µg/mL)	≥ 100	137 nM	75 ×10⁻⁶ cm/s	2.2	122 nM	> 10000 nM
CN(C)CCC/N=C1\CC(c2ccc(Cl)cc2Cl)Cc2nc3ccc(Cl)cc3c(O)c21 (racemic)	12	–	≥ 100	25 nM	–	–	300 nM	–
C[C@H]1[C@@H](O)O[C@@H]2O[C@@]3(C)CC[C@H]4[C@H](C)CC[C@@H]1[C@@]24OO3 [ARTENIMOL]	–	–	–	1.8 nM	–	–	0.9 nM	–
O=C1C(O)=C([C@H]2CC[C@H](c3ccc(Cl)cc3)CC2)C(=O)c2ccccc21 [ATOVAQUONE]	–	–	–	0.53 nM	–	–	> 170 nM	–
